Measurements from article PMC4907692, “Engineering vanilloid-sensitivity into the rat TRPV2 channel” (eLife, 2016).

Assays:
WT TRPV1 = molecular target: T1, WT TRPV1 (Rattus norvegicus, UniProt O35433); assay: Two-electrode voltage-clamp in Xenopus oocytes, WT TRPV1; type: cell-based
T1 construct: expressed in transfected cells; host or cells: Xenopus oocytes (cRNA injection, pGEM-HE)
From the text: (§1) To further investigate the putative vanilloid binding pocket in TRPV1, we inspected the cryo-EM structure of TRPV1, looking for residues that are located nearby to the putative RTx density (Figure 1B; regions/residues highlighted in yellow) and that differ between TRPV1 and TRPV2 channels (Figure 3—figure supplement 1; regions highlighted in magenta). […] To quantify the contribution of each of these residues to TRPV1 channel activation by RTx under our experimental conditions, we mutated each to the corresponding residue in TRPV2. We then expressed each construct in oocytes and used the two electrode voltage-clamp technique to study activation by RTx and by the non-specific TRPV channel activator 2-APB. We recorded time courses for channel activation by each agonist while stepping the membrane potential from −60 to +60 mV every 3 s from a holding potential of 0 mV using an external recording solution containing 100 mM KCl (internal K^+ concentration in a healthy oocyte is 100 mM) (Figure 3A, left). We also recorded current-voltage (I-V) relations by stepping over a wider range of voltages in the absence and presence of activators, or in the presence of ruthenium red (RR), a non-specific inhibitor of TRP channels (Figure 3A, right).
The WT rat TRPV1 and TRPV2 channels in the pcDNA3.1 vector were kindly provided by Dr. David Julius (UCSF) ([Caterina et al., 1997]; [Caterina et al., 1999]) and subcloned into the pGEM-HE vector ([Liman et al., 1992]). Mutations were introduced into rTRPV1 using a two-step PCR mutagenesis technique and the resulting constructs were verified by sequencing. All channel constructs were expressed in Xenopus oocytes and studied following 1–4 days incubation after cRNA injection (incubated at 17°C in 96 mM NaCl, 2 mM KCl, 5 mM HEPES, 1 mM MgCl2 and 1.8 mM CaCl2, 50 μg/ml gentamycin, pH 7.6 with NaOH) using the two-electrode voltage-clamp recording technique (OC-725C, Warner Instruments, Hamden, CT) with a 150 μl recording chamber. Data were filtered at 1–3 kHz and digitized at 20 kHz using pClamp software (Molecular Devices, Sunnyvale, CA). […]

[1] = molecular target: T2, TRPV1 QM (S512F, M547L, T550L, E570Q) (Rattus norvegicus, UniProt O35433, E570Q/M547L/S512F/T550L); assay: Two-electrode voltage-clamp in Xenopus oocytes, TRPV1 QM; type: cell-based; details: 2 mM 2-APB
T2 construct: expressed in transfected cells; host or cells: Xenopus oocytes (cRNA injection)
T2 sequence (O35433 whole entry S512F/M547L/T550L/E570Q): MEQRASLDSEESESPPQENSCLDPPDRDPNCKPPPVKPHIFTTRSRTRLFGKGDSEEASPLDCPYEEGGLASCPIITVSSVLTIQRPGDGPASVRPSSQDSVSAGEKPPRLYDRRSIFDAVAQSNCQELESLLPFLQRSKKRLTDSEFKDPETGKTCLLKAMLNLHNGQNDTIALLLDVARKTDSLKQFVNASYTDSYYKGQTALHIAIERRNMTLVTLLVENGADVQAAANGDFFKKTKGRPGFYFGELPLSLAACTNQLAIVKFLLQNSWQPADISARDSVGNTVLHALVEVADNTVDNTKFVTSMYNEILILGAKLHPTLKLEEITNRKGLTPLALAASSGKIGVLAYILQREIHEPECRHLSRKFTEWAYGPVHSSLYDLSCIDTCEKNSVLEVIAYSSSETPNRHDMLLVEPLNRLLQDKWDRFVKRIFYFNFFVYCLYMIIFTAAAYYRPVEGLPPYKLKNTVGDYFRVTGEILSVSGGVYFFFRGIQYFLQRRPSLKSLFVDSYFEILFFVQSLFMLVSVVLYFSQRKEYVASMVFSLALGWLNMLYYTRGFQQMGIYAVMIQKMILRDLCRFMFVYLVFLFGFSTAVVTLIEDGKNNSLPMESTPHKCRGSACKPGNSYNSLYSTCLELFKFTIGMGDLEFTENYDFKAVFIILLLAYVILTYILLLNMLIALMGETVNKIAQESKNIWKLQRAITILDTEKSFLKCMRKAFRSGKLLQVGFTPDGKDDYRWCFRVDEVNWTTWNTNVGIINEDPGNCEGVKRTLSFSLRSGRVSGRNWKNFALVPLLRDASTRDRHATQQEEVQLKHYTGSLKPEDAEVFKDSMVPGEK
From the text: as §1, with “right). […]” for “right).”

WT TRPV2 = molecular target: T3, WT TRPV2 (Rattus norvegicus, UniProt Q9WUD2); assay: Two-electrode voltage-clamp in Xenopus oocytes, WT TRPV2; type: cell-based; details: 4 mM 2-APB
T3 construct: expressed in transfected cells; host or cells: Xenopus oocytes (cRNA injection, pGEM-HE)
T3 sequence (Q9WUD2 whole entry): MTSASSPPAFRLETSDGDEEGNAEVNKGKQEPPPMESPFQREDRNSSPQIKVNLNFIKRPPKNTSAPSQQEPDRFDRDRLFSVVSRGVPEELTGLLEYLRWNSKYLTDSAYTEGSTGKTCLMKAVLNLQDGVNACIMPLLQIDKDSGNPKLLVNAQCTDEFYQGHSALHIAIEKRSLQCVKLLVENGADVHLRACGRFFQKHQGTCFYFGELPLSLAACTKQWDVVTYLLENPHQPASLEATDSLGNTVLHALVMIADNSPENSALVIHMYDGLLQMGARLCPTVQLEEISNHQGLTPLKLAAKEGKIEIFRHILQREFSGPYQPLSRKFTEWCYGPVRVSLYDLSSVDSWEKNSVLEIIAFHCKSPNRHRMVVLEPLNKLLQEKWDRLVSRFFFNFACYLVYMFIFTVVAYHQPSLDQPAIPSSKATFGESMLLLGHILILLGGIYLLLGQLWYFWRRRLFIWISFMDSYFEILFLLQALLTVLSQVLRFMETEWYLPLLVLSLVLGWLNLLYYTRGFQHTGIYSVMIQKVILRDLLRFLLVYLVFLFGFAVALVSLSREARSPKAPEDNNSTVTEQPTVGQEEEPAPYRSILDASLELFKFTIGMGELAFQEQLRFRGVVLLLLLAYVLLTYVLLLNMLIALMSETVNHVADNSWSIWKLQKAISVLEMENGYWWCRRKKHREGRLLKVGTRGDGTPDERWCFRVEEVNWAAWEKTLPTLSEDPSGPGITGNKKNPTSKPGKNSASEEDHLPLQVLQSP
From the text: as §1, with “right). […]” for “right).”

TRPV2 QM = molecular target: T4, TRPV2 QM (Rattus norvegicus, UniProt Q9WUD2, F472S/L507M/L510T/Q530E); assay: Two-electrode voltage-clamp in Xenopus oocytes, TRPV2 QM; type: cell-based; details: 50 µM capsaicin
T4 construct: expressed in transfected cells; host or cells: Xenopus oocytes (cRNA injection)
T4 sequence (Q9WUD2 1-761 F472S/L507M/L510T/Q530E): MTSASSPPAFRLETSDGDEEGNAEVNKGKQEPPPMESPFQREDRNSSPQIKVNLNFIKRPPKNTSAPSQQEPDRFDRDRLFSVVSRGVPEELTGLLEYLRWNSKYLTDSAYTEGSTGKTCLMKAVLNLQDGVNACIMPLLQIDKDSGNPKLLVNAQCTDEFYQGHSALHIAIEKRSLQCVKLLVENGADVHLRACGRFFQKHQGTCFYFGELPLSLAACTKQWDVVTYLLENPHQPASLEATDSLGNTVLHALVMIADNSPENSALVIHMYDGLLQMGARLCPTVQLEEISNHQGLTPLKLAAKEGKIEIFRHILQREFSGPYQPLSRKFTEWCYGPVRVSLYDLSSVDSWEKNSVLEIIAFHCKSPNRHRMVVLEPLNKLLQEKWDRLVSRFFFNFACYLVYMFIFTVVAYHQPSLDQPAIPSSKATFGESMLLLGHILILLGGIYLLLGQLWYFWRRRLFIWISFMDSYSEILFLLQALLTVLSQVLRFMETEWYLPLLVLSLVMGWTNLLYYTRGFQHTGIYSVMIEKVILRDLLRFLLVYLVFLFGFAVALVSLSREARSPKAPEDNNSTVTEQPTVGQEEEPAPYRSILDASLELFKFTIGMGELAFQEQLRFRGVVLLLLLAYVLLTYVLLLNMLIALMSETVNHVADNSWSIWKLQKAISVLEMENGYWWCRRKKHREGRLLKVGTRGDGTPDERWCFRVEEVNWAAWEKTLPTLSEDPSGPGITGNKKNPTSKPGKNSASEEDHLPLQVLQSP
From the text: as §1, with “right). […]” for “right).”

TRPV2 = tested on: TRPV2; set-up: method as in Caterina et al., 1999; details: ref Caterina et al., 1999; cited from earlier work
[2] = tested on: full-length 1D4-tagged TRPV1; assay: 3H-RTx binding to S. cerevisiae membranes containing 1D4-tagged TRPV1; set-up: species or system rat; details: membranes, RTx binding in the presence of DkTx vs control
From the text: The polymodal activation of TRPV1 has been widely conceptualized using allosteric models wherein binding of activators (such as vanilloids, protons, DkTx or voltage) are allosterically coupled to opening of the pore ([Brauchi et al., 2004]; [Jara-Oseguera et al., 2016]; [Matta and Ahern, 2007]). The allosteric nature of these interactions has begun to be explored using electrophysiological measurements of channel function ([Jara-Oseguera et al., 2016]; [Yao et al., 2010]), but has thus far not been investigated biochemically. We therefore tested whether binding of DkTx can enhance the affinity of TRPV1 for RTx, which would be predicted by an allosteric model wherein the two activators promote opening by binding more tightly to the open state. For these experiments we used a 1D4-tagged TRPV1 construct where expression in S. cerevisiae was driven by a constitutive promoter and we performed binding assays on yeast membranes where the vanilloid would have free access to the channel protein (see Methods). Under these conditions, we measured a Kd for RTx binding to 1D4-tagged TRPV1 of 0.6 nM under control conditions, about ten fold higher affinity than what we measured in intact cells using GFP-tagged TRPV1. When we measured the concentration-dependence of RTx binding to 1D4-tagged TRPV1 in the presence of DkTx, we observed that the tarantula toxin enhanced the affinity for RTx by about 3-fold (Figure 2A). The effects of DkTx were concentration-dependent (Figure 2B) and were observed independent of whether the binding assay was performed at 37°C (our standard temperature) or at 30°C (Figure 2A).
The full-length TRPV1 and TRPV2 channels with 1D4 affinity tags (TETSQVAPA) on their C-termini were cloned into the YEpHIS vector and expressed in the BJ5457 strain of S. cerevisiae using the strong constitutively active PMA1 promoter, as previously described ([Moiseenkova-Bell et al., 2008]). After 48 hr of expression at 30°C in YPD media, cells were harvested by centrifugation and re-suspended in PBS buffer, supplemented with complete protease inhibitor cocktail (Roche, Indianapolis, IN) and 4-amidinophenylmethanesulfonyl fluoride hydrochloride (APMSF) (Sigma-Aldrich, St. Louis, MO). Cells were broken by passing through an Avestin homogenizer at the pressure of 35 kpsi, cell lysate was cleared by centrifugation at 8,000 g for 15 min and membranes were isolated by ultracentrifugation at 190,000 g for 1 hr. Membrane pellets were re-suspended in PBS buffer supplemented with protease inhibitors and 200 mM sucrose, flash-frozen in liquid nitrogen and stored at -70°C until RTx binding measurements.
S. cerevisiae cells overexpressing TRPV1 constructs to be used in ligand binding assays on intact cells (Figure 1E,F) were grown as for small scale expression trials. 24 hr after protein induction cells were spun down at 4000g, the supernatant was removed and the pellet resuspended in 1x PBS, normalizing OD600 to 75 for each sample, and aliquoted for storage at -80°C. ^3H-RTx binding assays on cells were performed at 37°C as previously described ([Feng et al., 2015]), but where non-specific binding of RTx was measured using cells expressing GFP alone. The binding of RTx to TRPV1 and TRPV2 in membranes (e.g. Figure 2A,B and 5C) was performed at 37°C unless otherwise stated using membranes prepared from large scale protein preparations of S. cerevisiae containing rat TRPV1 and TRPV2 with a 1D4 tag expressed using a constitutive promoter as in [Moiseenkova-Bell et al., 2008]. Data for binding of RTx to membranes was corrected for non-specific binding, determined using either excess non-radioactive ligand or heat inactivation of the protein, as previously described ([Feng et al., 2015]). The TRPV1-activating double-knot toxin (DkTx) was produced recombinantly, folded in vitro and purified as previously described ([Bae et al., 2012]). Yeast membranes were incubated with DkTx solution for 1 hr at 4°C with gentle agitation prior to undertaking RTx binding assays. […]

T1 sequence (O35433 whole entry): as the sequence (O35433 whole entry S512F/M547L/T550L/E570Q) above, with F512S, L547M, L550T, Q570E counted along it

NCCOB(c1ccccc1)c1ccccc1 [2-APB, 2-aminoethoxydiphenyl borate]
channel activation by 2-APB (WT TRPV1; 2 mM 2-APB, +60 and -60 mV): reversible activation
channel activation by 2-APB [1]: retaining sensitivity
channel activation by 2-APB (WT TRPV2): could be activated

N.N.N.N.N.N.N.N.N.N.N.N.N.N.[Cl-].[Cl-].[Cl-].[Cl-].[Cl-].[Cl-].[O-2].[O-2].[Ru+3].[Ru+3].[Ru+4] [RR, ruthenium red]
inhibition of RTx-activated currents by RR (WT TRPV1; 50 µM RR after 100 nM RTx): blocked the RTx-activated currents

COc1cc(CNC(=O)CCCC/C=C/C(C)C)ccc1O [capsaicin]
channel activation by capsaicin (TRPV2 QM): remained insensitive
sensitivity to capsaicin (TRPV2): insensitive to capsaicin

B1: double-knot toxin (protein, UniProt P0CH43 1-79, looked up)
Tau-theraphotoxin-Hs1a: DCAKEGEVCSWGKKCCDLDNFYCPMEFIPHCKKYKPYVPVTTNCAKEGEVCGWGSKCCHGLDCPLAFIPYCEKYRGRND
enhancement of the affinity for RTx by DkTx [2]: about 3 fold
